# Source: PubChem BioAssay AID330 (DTP/NCI, 2004)
# Values joined by “and” are separate entries in the source; they are usually repeats but may differ in a detail not shown here. Equal values may be shown once. Toxic doses and inconclusive results are not listed.
# System: P388 leukemia ip, CD2F1 mice, survival T/C
# Assay: NCI In Vivo Anticancer Drug Screen. Data for tumor model P388 Leukemia (intraperitoneal) in CD2F1 (CDF1) mice
# Conditions: endpoint: median survival time, higher = longer survival
# How it was run: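 Mice carrying the transplanted tumor received test compound or vehicle. Survival was recorded in each group, and the value is the treated-group measurement divided by that of the vehicle-treated control group.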
# [1] = dose: 50.0 mg/kg/injection, schedule: Q01DX005 (ip), vehicle: saline with Tween-80
# [2] = dose: 100.0 mg/kg/injection, schedule: Q01DX005 (ip), vehicle: saline with Tween-80
# [3] = dose: 200.0 mg/kg/injection, schedule: Q01DX005 (ip), vehicle: saline with Tween-80
# [4] = dose: 50.0 mg/kg/injection, schedule: Q01DX009 (ip), vehicle: saline with Tween-80
# [5] = dose: 100.0 mg/kg/injection, schedule: Q01DX009 (ip), vehicle: saline with Tween-80
# [6] = dose: 200.0 mg/kg/injection, schedule: Q01DX009 (ip), vehicle: saline with Tween-80
# [7] = dose: 120.0 mg/kg/injection, schedule: Q01DX005 (ip), vehicle: saline with Tween-80
# [8] = dose: 240.0 mg/kg/injection, schedule: Q01DX005 (ip), vehicle: saline with Tween-80
# [9] = dose: 50.0 mg/kg/injection, schedule: Q01DX009 (ip), vehicle: saline
# [10] = dose: 100.0 mg/kg/injection, schedule: Q01DX009 (ip), vehicle: saline
# [11] = dose: 200.0 mg/kg/injection, schedule: Q01DX009 (ip), vehicle: saline
# [12] = dose: 25.0 mg/kg/injection, schedule: Q01DX009 (ip), vehicle: saline with Tween-80
# [13] = dose: 25.0 mg/kg/injection, schedule: Q01DX009 (ip), vehicle: saline
# [14] = dose: 60.0 mg/kg/injection, schedule: Q01DX005 (ip), vehicle: saline with Tween-80
# [15] = dose: 15.0 mg/kg/injection, schedule: Q01DX005 (ip), vehicle: Klucel (hydroxypropylcellulose) (HPC)
# [16] = dose: 30.0 mg/kg/injection, schedule: Q01DX005 (ip), vehicle: Klucel (hydroxypropylcellulose) (HPC)
# [17] = dose: 60.0 mg/kg/injection, schedule: Q01DX005 (ip), vehicle: Klucel (hydroxypropylcellulose) (HPC)
# [18] = dose: 50.0 mg/kg/injection, schedule: Q01DX005 (ip), vehicle: Klucel (hydroxypropylcellulose) (HPC)
# [19] = dose: 100.0 mg/kg/injection, schedule: Q01DX005 (ip), vehicle: Klucel (hydroxypropylcellulose) (HPC)
smiles,measurement,setting,value
O=C(OCCOCCN1CCCCC1)C1c2ccccc2Sc2ccc(Cl)cc21 (stereo unspecified),T/C,"dose: 12.5 mg/kg/injection, schedule: Q01DX005 (ip), vehicle: saline",100 % of control
same,T/C,"dose: 25.0 mg/kg/injection, schedule: Q01DX005 (ip), vehicle: saline",105 % of control
same,T/C,"dose: 50.0 mg/kg/injection, schedule: Q01DX005 (ip), vehicle: saline",100 % of control and 98 % of control
COc1cc([C@@H]2c3cc4c(cc3[C@H](O)[C@H]3COC(=O)[C@@H]23)OCO4)cc(OC)c1OC,T/C,"dose: 7.5 mg/kg/injection, schedule: Q01DX010 (ip), vehicle: saline",109 % of control
same,T/C,"dose: 25.0 mg/kg/injection, schedule: Q04DX003 (ip), vehicle: saline sonified",95 % of control
same,T/C,"dose: 30.0 mg/kg/injection, schedule: Q01DX010 (ip), vehicle: saline",172 % of control
same,T/C,"dose: 50.0 mg/kg/injection, schedule: Q04DX003 (ip), vehicle: saline sonified",112 % of control
same,T/C,"dose: 100.0 mg/kg/injection, schedule: Q04DX003 (ip), vehicle: saline sonified",154 % of control
CCCCC(CCCC)[N+](=O)[O-],T/C,[1],108 % of control
same,T/C,[2],110 % of control
same,T/C,[3],103 % of control
O=C(N/N=C/c1ccc(/C=N/NC(=O)c2cccnc2)cc1)c1cccnc1,T/C,[4],102 % of control
same,T/C,[5],96 % of control
same,T/C,[6],93 % of control
Cc1ccc(NC(=O)CC(=O)CC(C)C)cc1C,T/C,[1],107 % of control
same,T/C,[7],113 % of control
same,T/C,[8],114 % of control
NS(=O)(=O)c1cccnc1Nc1ccc([N+](=O)[O-])cc1,T/C,[9],105 % of control
same,T/C,[10],101 % of control
same,T/C,[11],93 % of control
CCOC(=O)C1=C(C#N)C2(CCC(OCc3ccccc3)CC2)C(=O)O1 (stereo unspecified),T/C,[12],90 % of control
same,T/C,[13],104 % of control
same,T/C,[4],92 % of control
same,T/C,[9],104 % of control and 106 % of control and 100 % of control
same,T/C,[5],119 % of control
same,T/C,[10],108 % of control and 116 % of control and 102 % of control
same,T/C,[6],123 % of control
same,T/C,[11],119 % of control and 100 % of control
CC(=O)c1c(CO[N+](=O)[O-])n([O-])c2ccccc2[n+]1=O,T/C,[14],106 % of control
same,T/C,[7],104 % of control
CCCOC(=O)/C=C(\I)C(=O)OCCC,T/C,"dose: 12.5 mg/kg/injection, schedule: Q01DX009 (ip), vehicle: saline with Tween-80",119 % of control
same,T/C,[12],110 % of control
same,T/C,[4],110 % of control and 92 % of control
COc1cc([N+](=O)[O-])cc2c1OC1(C=C2)Oc2ccccc2N1C (stereo unspecified),T/C,[15],103 % of control
same,T/C,[16],100 % of control
same,T/C,[17],94 % of control
same,T/C,"dose: 120.0 mg/kg/injection, schedule: Q01DX005 (ip), vehicle: Klucel (hydroxypropylcellulose) (HPC)",100 % of control
O=C1Nc2ccc(Cl)cc2C1=O,T/C,"dose: 50.0 mg/kg/injection, schedule: Q01DX009 (ip), vehicle: Klucel (hydroxypropylcellulose) (HPC)",99 % of control and 98 % of control
same,T/C,"dose: 100.0 mg/kg/injection, schedule: Q01DX009 (ip), vehicle: Klucel (hydroxypropylcellulose) (HPC)",105 % of control
same,T/C,"dose: 200.0 mg/kg/injection, schedule: Q01DX009 (ip), vehicle: Klucel (hydroxypropylcellulose) (HPC)",118 % of control and 89 % of control
CCCCOC1OCN(CCC)CC1(C)C (stereo unspecified),T/C,[4],111 % of control and 113 % of control
same,T/C,[5],122 % of control
Cc1[nH]c2ccc(N(C)C)cc2c(=O)c1CN(C)Cc1c(C)[nH]c2ccc(N(C)C)cc2c1=O,T/C,[14],99 % of control
same,T/C,[7],100 % of control
same,T/C,[8],100 % of control
N#C/C(=N\Nc1ccc(Cl)cc1)C(=O)C1CC1,T/C,[15],105 % of control
same,T/C,[16],98 % of control
same,T/C,[17],99 % of control and 91 % of control
CC(=NCCN=C(C)c1cc(C)cc(Br)c1O)c1cc(C)cc(Br)c1O,T/C,[18],108 % of control
same,T/C,[19],101 % of control
same,T/C,"dose: 200.0 mg/kg/injection, schedule: Q01DX005 (ip), vehicle: Klucel (hydroxypropylcellulose) (HPC)",117 % of control
COc1cc2cc3c4cc5c(cc4cc[n+]3c(C)c2cc1OC)OCO5 (tested in a mixture with another compound),T/C,"dose: 15.0 mg/kg/injection, schedule: Q04DX003 (ip), vehicle: saline",153 % of control
Cc1ccc(S(=O)(=O)N(CCC(c2ccccc2)c2ccccc2)S(=O)(=O)c2ccc(C)cc2)cc1,T/C,[12],102 % of control
same,T/C,[4],98 % of control
same,T/C,[5],100 % of control
CC(C)(C)N=NNc1ccc([N+](=O)[O-])cc1,T/C,"dose: 12.5 mg/kg/injection, schedule: Q01DX009 (ip), vehicle: distilled water + Tween-80",106 % of control
same,T/C,"dose: 25.0 mg/kg/injection, schedule: Q01DX009 (ip), vehicle: distilled water + Tween-80",100 % of control
same,T/C,"dose: 50.0 mg/kg/injection, schedule: Q01DX009 (ip), vehicle: distilled water + Tween-80",93 % of control
same,T/C,"dose: 100.0 mg/kg/injection, schedule: Q01DX009 (ip), vehicle: distilled water + Tween-80",86 % of control
same,T/C,"dose: 200.0 mg/kg/injection, schedule: Q01DX009 (ip), vehicle: distilled water + Tween-80",96 % of control
OCC1(CO)COC2(CCCCC2)N1,T/C,[9],107 % of control
same,T/C,[10],101 % of control and 120 % of control
same,T/C,[11],100 % of control and 124 % of control
CN1C(=O)CC([Se]c2ccccc2)C1=O (stereo unspecified),T/C,"dose: 6.25 mg/kg/injection, schedule: Q04DX003 (ip), vehicle: Klucel (hydroxypropylcellulose) (HPC)",107 % of control and 97 % of control
same,T/C,"dose: 12.5 mg/kg/injection, schedule: Q04DX003 (ip), vehicle: Klucel (hydroxypropylcellulose) (HPC)",103 % of control and 104 % of control
same,T/C,"dose: 25.0 mg/kg/injection, schedule: Q04DX003 (ip), vehicle: Klucel (hydroxypropylcellulose) (HPC)",99 % of control and 105 % of control
same,T/C,"dose: 50.0 mg/kg/injection, schedule: Q04DX003 (ip), vehicle: Klucel (hydroxypropylcellulose) (HPC)",100 % of control
same,T/C,"dose: 100.0 mg/kg/injection, schedule: Q04DX003 (ip), vehicle: Klucel (hydroxypropylcellulose) (HPC)",105 % of control
CN(C)C(=S)/N=C1\SCS(=O)(=O)N1C,T/C,[12],91 % of control
same,T/C,[4],110 % of control
same,T/C,[5],100 % of control
Cc1ccc2c(c1)C=CC(C#N)N2C(=O)Oc1ccccc1 (stereo unspecified),T/C,"dose: 6.25 mg/kg/injection, schedule: Q01DX009 (ip), vehicle: saline",99 % of control and 101 % of control
same,T/C,"dose: 12.5 mg/kg/injection, schedule: Q01DX009 (ip), vehicle: saline",98 % of control
same,T/C,[13],93 % of control and 96 % of control
OCc1c(-c2ccccc2)c(-c2ccccc2)c2n1CCC2,T/C,[1],103 % of control
same,T/C,[2],92 % of control
same,T/C,[3],99 % of control
Cc1c2c(nn1C)CC(C)(C)OC2=O,T/C,"dose: 100.0 mg/kg/injection, schedule: Q01DX001 (ip), vehicle: Klucel (hydroxypropylcellulose) (HPC)",95 % of control
same,T/C,"dose: 200.0 mg/kg/injection, schedule: Q01DX001 (ip), vehicle: Klucel (hydroxypropylcellulose) (HPC)",100 % of control
same,T/C,"dose: 400.0 mg/kg/injection, schedule: Q01DX001 (ip), vehicle: Klucel (hydroxypropylcellulose) (HPC)",101 % of control
COc1cccc2c1C(=O)c1c(O)c3c(c(O)c1C2=O)C[C@@](O)(C(=O)CO)C[C@@H]3OC1CC(N)C(OC)C(C)O1 (stereo partly specified),T/C,"dose: 0.39 mg/kg/injection, schedule: Q01DX009 (ip), vehicle: saline",201 % of control
same,T/C,"dose: 0.65 mg/kg/injection, schedule: Q01DX009 (ip), vehicle: saline",201 % of control
same,T/C,"dose: 1.08 mg/kg/injection, schedule: Q01DX009 (ip), vehicle: saline",324 % of control
same,T/C,"dose: 1.08 mg/kg/injection, schedule: Q04DX003 (ip), vehicle: saline",190 % of control
same,T/C,"dose: 1.8 mg/kg/injection, schedule: Q04DX003 (ip), vehicle: saline",263 % of control
same,T/C,"dose: 3.0 mg/kg/injection, schedule: Q04DX003 (ip), vehicle: saline",257 % of control
same,T/C,"dose: 3.13 mg/kg/injection, schedule: Q04DX003 (ip), vehicle: water",172 % of control
same,T/C,"dose: 5.0 mg/kg/injection, schedule: Q04DX003 (ip), vehicle: saline",163 % of control and 172 % of control
same,T/C,"dose: 12.5 mg/kg/injection, schedule: Q04DX003 (ip), vehicle: water",90 % of control
COc1ccc(-c2ccc(OC)c(=O)cc2)c(OC)c1OC,T/C,[18],93 % of control
same,T/C,[19],105 % of control
